From patent publication US8420777B2, “Compounds that inhibit Hsp90 protein-protein interactions with IAP proteins” (University of Massachusetts, priority 2004, dated 2013)

Tests used:
HeLa cells [1] = assay: Multiparametric flow cytometry of caspase activity and membrane integrity; assay type: cell-based, Human; details: increasing concentrations, 24 hours
Description: (§1) For multiparametric analysis of caspase-dependent cell death and loss of plasma membrane integrity, HeLa, MCF-7, or genetically engineered HCT116 cells (obtained from ATCC) were loaded with increasing concentrations of cell permeable control scrambled peptide or the Survivin peptide, harvested after culturing for 24 hours at 37° C., and analyzed for cell viability (propidium iodide, red channel) and active caspase-3 activity (CaspaTag™ from Intergen, Purchase, N.Y., green channel) by flow cytometry.
Cells were harvested after 24 hours of incubation with peptide and simultaneously analyzed for caspase activity by DEVDase activity (X-axis, green fluorescence) and cell membrane integrity by propidium iodide staining (Y-axis, red fluorescence). Cells in the upper right quadrant correspond to the population with elevated caspase activity and loss of cell membrane integrity (apoptotic).

[2] = system: HFF, HGF, WS-1 normal cells; assay: MTT colorimetric viability assay, normal cell types; assay type: cell-based, human; details: 24 hours
Description: (§2) FIGS. 22A and 22B compares the effect of P31 (SEQ ID NO:19) or P33 (SEQ ID NO:25) on apoptosis of tumor cell lines (FIG. 22A) and normal cell lines (FIG. 22B). The following tumor cell lines DU145 (prostate cancer, circles), PC3 (prostate cancer, triangles), or HeLa (cervical carcinoma, squares) were treated with the indicated increasing concentrations of P31 peptide (solid symbols) or control P33 peptide (open symbols), harvested after 24 hours, and analyzed for cell viability using an MTT colorimetric assay. For normal cell types (right panel), HFF (human foreskin fibroblasts, squares), HGF (human fibroblasts, triangles) or WS-1 (human epithelial cells, circles) were treated with P31 (solid symbols) or control scrambled peptide P33, harvested after 24 hours and analyzed for overall cell viability by MTT colorimetric assay. All cell lines were from ATCC.

HeLa cells [3] = assay: Apoptosis by hypodiploid DNA content, propidium iodide flow cytometry; assay type: cell-based, Human; details: 24 hours
Description: For determination of apoptosis by hypodiploid DNA content, various tumor cell lines were incubated with increasing concentrations of the cell permeable control scrambled (SEQ ID NO:25) or Survivin peptide (SEQ ID NO:19), harvested after 24 hours (floaters plus attached cells) fixed in 70% ethanol, and stained with 10 μg/ml propidium iodide plus 100 μg/ml RNAse A and 0.05% Triton™ X-100 in PBS, pH 7.4. Cultures were analyzed for DNA content by flow cytometry. For colorimetric quantification of cell viability, an MTT assay was used. Various tumor cell lines were incubated with increasing concentrations of the cell permeable retro-inverso control scrambled P4 or the Survivin-specific P3 peptide, incubated for 24 hours at 37° C. washed twice with Bruffs Media, and 4,5-dimethylthiazol-2-yl)-2,5-diphenyltetrazolium bromide (MTT) (Sigma, St. Louis, Mo.) was added at 5 mg/ml. Decrease in cell viability was analyzed for loss of colorimetric absorption at OD405.
HeLa cells were incubated with the indicated increasing concentrations of the cell permeable Control (scrambled) or Survivin peptide, harvested after 24 hours at 37° C., and analyzed by hypodiploid DNA content by propidium iodide staining and flow cytometry.
HeLa cells were incubated with chemotherapeutic drugs Taxol™ (10 μM) or adriamycin (300 nM), or cell permeable control peptide or the Survivin peptide, harvested after 24 hours, and analyzed for induction of apoptosis by hypodiploid DNA content by flow cytometry.

HL-60 cells = assay: Cell killing by trypan blue exclusion; assay type: cell-based
Description: The expression and function of the survivin-Hsp90 pathway in acute myelogenous leukemia (AML) cell lines was analyzed. Survivin was abundantly expressed in four AML cell lines, U937, K-562, THP-1 and HL-60, by Western blotting (FIG. 29A).

[4] = system: DU145, PC3, HeLa tumor cell lines; assay: MTT colorimetric viability assay, tumor cell lines; assay type: cell-based; details: increasing concentrations, 24 hours
Description: as §2

[5] = system: HCT116 colorectal cancer cells (p53+/+ or p53-/-); assay: Multiparametric flow cytometry of caspase activity and membrane integrity; assay type: cell-based; set-up: dose or concentration left out as unconfirmed; details: 24 hours, p53+/+ versus p53-/-
Description: as §1
In these experiments, HCT116 colorectal cancer cells carrying wild type p53 (p53^+/+) or homozygously inactivated p53 (p53^−/−) (Bunz et al., Science, 282:1497-1501 (1998))) were incubated with […] of cell permeable Control (SEQ ID NO:25) or Survivin (SEQ ID NO:19) cell permeable peptide, harvested after 24 hours and analyzed by multiparametric flow cytometry of induction of caspase activity and loss of cell membrane integrity.

HeLa cells [6] = assay: Annexin V labeling and propidium iodide multiparametric flow cytometry; assay type: cell-based, Human; details: increasing concentrations, eight hour incubation, 37° C.
Description: HeLa cell cultures were treated with the indicated increasing concentrations of P31 (Survivin) or P33 (Control; SEQ ID NO:25) peptides, harvested after an eight hour incubation at 37° C., and analyzed for multiparametric flow cytometry of Annexin V labeling (X-axis, a marker of apoptosis) and propidium iodide staining (Y-axis, a marker of cell death).

[7] = system: U937, K562, HL60, THP1 AML cell lines; assay: MTT cell viability in AML cell lines; assay type: cell-based, human
Description: FIG. 30 is a graph depicting killing activity of survivin K79-G83 in AML cells. The indicated human AML cell lines (U937, K562, HL60, and THP1) were incubated with scrambled (SEQ ID NO:28) or Survivin (SEQ ID NO:20) peptides and evaluated for cell viability by MTT.
The effect of the K79-G83 Survivin peptide was characterized in more detail for anti-tumor activity in AML. The K79-L87 (SEQ ID NO:19) and K79-G83 peptides (SEQ ID NO:20) were incubated with AML cells, and cell viability was measured using MTT.

[8] = system: HL-60 and THP-1 AML cell lines; assay: MTT cell viability, short versus full length peptide; assay type: cell-based; details: 4×10^5 cells
Description: FIGS. 29B-29D are graphs depicting killing of AML cells by Survivin peptides. FIG. 29B depicts survivin peptide activity in HL-60 cells, measured by Trypan blue exclusion. FIGS. 29C and 29D depict killing, as measured using MTT, of HL-60 (FIG. 29C) or THP-1 (FIG. 29D) cells by full length Survivin peptide (SEQ ID NO:19), Survivin peptide K79-G83 (SEQ ID NO:20), or scrambled peptide (SEQ ID NO:25 and SEQ ID NO:28).
The activity of a shorter Survivin peptide was also tested in an AML cell line. A shorter cell permeable Survivin peptide was synthesized by fusing the third α-helix of the Antennapedia carrier sequence to the amino-terminus of the Survivin peptide sequence K79-G83 (SEQ ID NO:20). […] The scrambled control peptide ([…]; SEQ ID NO:28) was ineffective (FIGS. 29C, D). For these experiments a higher number of cells was used (4×10^5) to produce a 50% killing efficiency by full length survivin peptide.

RQIKIWFQNRRMKWKKKHSSGCAFL (Synthetically generated peptide) [P31]
cell death (caspase activity and loss of plasma membrane integrity) (HeLa cells [1]): induces cell death more efficiently than scrambled control peptide | cell death in normal cell types (MTT) [2]: did not induce cell death in any of the three normal cell types | cell viability reflected by hypodiploid DNA content (HeLa cells [3]; increasing concentrations, 37° C.): massive loss of cell viability | cell population with hypodiploid DNA content (apoptotic) (HeLa cells [3]; peptides, comparison with chemotherapeutic drugs): results in the appearance of a large cell population with hypodiploid DNA content | cell killing (trypan blue exclusion) (HL-60 cells): dose-dependent and complete cell killing | cell death in cancer cell lines (MTT) [4]: effectively induced cell death in all three cancer cell lines | accumulation of cells with high caspase activity and loss of plasma membrane integrity [5]: indistinguishable between p53^+/+ and p53^−/− HCT116 cells | induction of apoptosis (Annexin V / propidium iodide) (HeLa cells [6]): induced apoptosis in a dose-dependent manner | cell viability (MTT), killing of AML cell lines [7]: efficiently killed all AML cell lines tested | killing efficiency [8]: 50%
